Data taken from ChEMBL document CHEMBL3886637, “Pyridine-2-amides useful as CB2 agonists” (2016).

Legend:
Cannabinoid receptor 2 = Cannabinoid receptor 2 (Homo sapiens, UniProt P34972); assay: (§1) cAMP Assay: CHO cells expressing human CB1 or CB2 receptors are seeded 17-24 hours prior to the experiment 50.000 cells per well in a black 96 well plate with flat clear bottom (Corning Costar #3904) in DMEM (Invitrogen No. 31331), 1×HT supplement, with 10% fetal calf serum and incubated at 5% CO2 and 37 °C. in a humidified incubator. The growth medium was exchanged with Krebs Ringer Bicarbonate buffer with 1 mM IBMX and incubated at 30 °C. for 30 min. Compounds were added to a final assay volume of 100 μl and incubated for 30 min at 30 °C. Using the cAMP-Nano-TRF detection kit the assay (Roche Diagnostics) was stopped by the addition of 50 μl lysis reagent (Tris, NaCl, 1.5% Triton X100, 2.5% NP40, 10% NaN3) and 50 μl detection solutions (20 μM mAb Alexa700-cAMP 1:1, and 48 μM Ruthenium-2-AHA-cAMP) and shaken for 2 h at room temperature. The time-resolved energy transfer is measured by a TRF reader (Evotec Technologies GmbH), equipped with a ND:YAG laser as excitation source. The plate is measured twice with the excitation at 355 nm and at the emission with a delay of 100 ns and a gate of 100 ns, total exposure time 10 s at 730 (bandwidth 30 nm) or 645 nm (bandwidth 75 nm), respectively. The FRET signal is calculated as follows: FRET=T730-Alexa730-P(T645-B645) with P=Ru730-B730/Ru645-B645, where T730 is the test well measured at 730 nM, T645 is the test well measured at 645 nm, B730 and B645 are the buffer controls at 730 nm and 645 nm, respectively. cAMP content is determined from the function of a standard curve spanning from 10 μM to 0.13 nM cAMP.; assay type: functional, cell-based
Sequence of Cannabinoid receptor 2 (P34972 whole entry): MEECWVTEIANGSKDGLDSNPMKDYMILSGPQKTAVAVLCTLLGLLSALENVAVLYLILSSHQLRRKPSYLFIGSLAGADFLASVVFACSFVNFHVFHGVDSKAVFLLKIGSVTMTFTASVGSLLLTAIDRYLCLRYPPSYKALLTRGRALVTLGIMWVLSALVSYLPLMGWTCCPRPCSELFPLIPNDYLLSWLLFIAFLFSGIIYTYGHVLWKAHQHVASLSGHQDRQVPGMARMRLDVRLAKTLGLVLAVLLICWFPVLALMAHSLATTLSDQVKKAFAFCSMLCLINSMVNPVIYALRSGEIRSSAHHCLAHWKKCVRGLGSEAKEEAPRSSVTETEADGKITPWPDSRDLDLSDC

Cannabinoid receptor 1 = Cannabinoid receptor 1 (Homo sapiens, UniProt P21554); assay: as §1; assay type: functional, cell-based
Sequence of Cannabinoid receptor 1 (P21554 whole entry): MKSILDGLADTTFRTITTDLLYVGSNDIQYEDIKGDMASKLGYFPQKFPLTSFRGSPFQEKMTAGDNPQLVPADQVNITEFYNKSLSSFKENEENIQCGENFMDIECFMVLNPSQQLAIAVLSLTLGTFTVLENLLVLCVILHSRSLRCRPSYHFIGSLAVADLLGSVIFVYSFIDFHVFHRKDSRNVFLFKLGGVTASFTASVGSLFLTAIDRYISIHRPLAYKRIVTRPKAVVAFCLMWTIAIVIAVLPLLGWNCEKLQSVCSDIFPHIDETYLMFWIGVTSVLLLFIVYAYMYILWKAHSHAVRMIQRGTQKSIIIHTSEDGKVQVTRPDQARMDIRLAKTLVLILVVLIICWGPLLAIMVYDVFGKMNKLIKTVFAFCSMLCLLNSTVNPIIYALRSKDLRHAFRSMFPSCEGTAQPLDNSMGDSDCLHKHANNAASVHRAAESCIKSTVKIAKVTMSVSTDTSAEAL

| Structure (SMILES) | EC50 (Cannabinoid receptor 2) | EC50 (Cannabinoid receptor 1) |
| --- | --- | --- |
| CC1(C)CC(C(N)=O)N(C(=O)c2ccc(N3CC(F)(F)C3)c(OCC3CC3)n2)C1 (stereo not drawn) | 6.6 nM | – |
| CC(C)N(C(=O)c1ccc(N2CC(F)(F)C2)c(OCC2CC2)n1)C(C)C | 12.6 nM | > 10000 nM |
